Assays:
[1] = system: Rat basophilic leukemia cells (RBL-2H3); assay: β-hexosaminidase level (ELISA) in A23187-stimulated RBL-2H3 cells, anti-allergy effect; format: cell-based; settings: positive control group, concentration not given; RBL-2H3, A23187 1 μg/mL; blank control = 100
Protocol: (§1) Rat basophilic leukemia cells (RBL-2H3) is seeded in a 96-well cell culture plate, with each well containing 5*10^4 cells. Cells are incubated in a 37-degree Celsius incubator with 5% CO2 overnight to allow attachment to the culture plate. Replace the culture medium with culture medium containing the care composition (hereinafter referred to as AMDS) of different dilution rates (1/1600, 1/800, 1/400, 1/200, and 1/100) and control groups (a blank control group and a positive control group, which is incubated in culture medium containing quercetin). After 30 minutes of incubation, A23187 (1 μg/mL) is added and allowed reaction for an hour. β-hexosaminidase level is analyzed by applying cell culture supernatant to enzyme-linked immunosorbent assay (ELISA). Replace the culture medium with that containing MTT (0.5 mg/mL), followed with 2-hour incubation. Discard the MTT-medium solution, and add DMSO (150 μL/well) to each well. Let sit in room temperature for 10 minutes, allowing the purple formazan to fully dissolve. The cell survival rate is calculated and determined by detecting the optical density (O.D.) at wavelength 570 in a spectrophotometer. Cell survival rate (%)=(sample OD570/blank control group OD570)*100%. […] The lower the β-hexosaminidase, the greater the anti-allergy effect. […]

[2] = system: Rat basophilic leukemia cells (RBL-2H3); assay: MTT cell survival rate of RBL-2H3; format: cell-based; settings: positive control group, concentration not given; RBL-2H3, MTT
Protocol: as §1

Structure (SMILES): O=c1c(O)c(-c2ccc(O)c(O)c2)oc2cc(O)cc(O)c12 [quercetin]
- β-hexosaminidase (%) [1]: 1.8%
- Cell survival rate (%) [2]: 87.97%
